{
  "source": "paper PMC6413024",
  "about": "“Multimerization Increases Tumor Enrichment of Peptide–Photosensitizer Conjugates” (Molecules, 2019)",
  "key": {"[1]": {"assay": "UV–Vis absorption and fluorescence spectra in DMSO", "type": "physicochemical", "conditions": "for λmax: UV–Vis absorption in DMSO, Q-band, recorded from 300 to 800 nm; for λem: fluorescence emission in DMSO, Hitachi F-4500, 2.0 µM, excitation at approximately 668 nm; for Stokes Shift: in DMSO", "method": "(§1) The UV–Vis absorption spectra and fluorescence spectra of the synthesized conjugates of Pyro-MonoRGD, Pyro-DiRGD, Pyro-TriRGD, and free Pyro were measured in DMSO. Absorption spectra were recorded from 300 to 800 nm. Fluorescence emission and excitation spectra were recorded from 550 to 800 nm upon excitation at approximately 668 nm and emission at 672–673 nm using a Hitachi model F-4500 FL spectrophotometer (Tokyo, Japan). The singlet oxygen quantum yields (ΦΔ) of the conjugates were measured in DMSO using DPBF as the quencher and Pyro as the reference."}, "[2]": {"biological_target": "human isolated αvβ3 integrin receptors (ITGAV&ITGB3 heterodimer) (Homo sapiens, UniProt P05106+P06756)", "assay": "Receptor binding assay: competitive inhibition of biotinylated vitronectin binding to αvβ3 integrin", "conditions": "for IC50: biotinylated vitronectin 2.0 μg/mL, integrin 2.0 μg/mL in PBS pH 7.4, 4 °C overnight, test compounds 10^−3 to 10^−11 M, 3 h, 37 °C shaker, streptavidin–HRP/TMB, absorbance 450 nm, nonlinear regression GraphPad Prism 5.0, means ± SD of triplicate determinations", "method": "Human integrin αvβ3 (ITGAV&ITGB3) heterodimer protein was diluted to 2.0 μg/mL in PBS buffer (pH 7.4) and was then added to a 96-well plate (100 μL/well) and incubated overnight at 4 °C. The plate was blocked with 10% milk solution for an additional 2 h in a 37 °C shaker, followed by a 3 h incubation in the 37 °C shaker with various concentrations (10^−3 to 10^−11 M) of test compounds in the presence of biotinylated vitronectin (2.0 μg/mL). After washing, the plates were incubated for 1 h in the 37 °C shaker with streptavidin–HRP and then washed again, followed by 30 min of incubation with 100 μL/well TMB single-component substrate solution before stopping the reaction with the addition of 100 μL/well 2.0 N H2SO4. The absorbance at 450 nm was read on a microplate reader. Each data point represents the average of the triplicate wells, and data analysis was performed using nonlinear regression analysis with GraphPad Prism 5.0 software (GraphPad Software, Inc., San Diego, CA, USA.)."}, "[3]": {"test_system": "U87-MG tumor", "type": "in vivo, Balb/c nude mice; human U87-MG cells", "conditions": "50 nmol/mouse i.v.; mice euthanized 2 h postinjection; vs the other two conjugates; triplicates", "method": "To further verify the tumor targeting ability of these conjugates, the mice were euthanized 2 h postinjection, and their organs were collected for imaging. As shown in Figure 3B (heart, liver, spleen, lungs, and tumor from left to right), when the valence of the conjugates increased, the fluorescence signal in the tumor region increased.\nHuman U87-MG cells (4 × 10^6 cells/mouse) were subcutaneously inoculated on the axilla of female Balb/c nude mice. When the tumors grew to 200 mm^3, the mice were divided into three groups with each group containing three mice. The mice were then intravenously injected with 50 nmol/mouse of Pyro-MonoRGD, Pyro-DiRGD, and Pyro-TriRGD, respectively. In vivo fluorescence analysis was performed before and after the injection at various time points using the IVIS Lumina imaging system (IVIS Lumina II, Xenogen, USA) with a Cy5.5 filter (excitation: 615–665 nm, emission: 695–770 nm). Alternatively, the mice were euthanized at 2 h postinjection, and major organs, including the heart, liver, spleen, lungs, kidneys, and muscles, as well as the tumor, were collected; fluorescence images were then acquired."}, "[4]": {"assay": "Singlet oxygen quantum yield in DMSO", "type": "physicochemical", "conditions": "DPBF as the quencher and Pyro as the reference", "method": "as §1"}, "[5]": {"test_system": "U87-MG tumor", "type": "in vivo, Balb/c nude mice; human U87-MG cells", "from_the_text": "To examine the tumor enrichment of these conjugates in vivo, we prepared a xenograft tumor model by subcutaneously inoculating mice with U87-MG tumor cells ([…]) on the axilla. U87-MG cells have high expression levels of the αvβ3 integrin receptor. When the tumors grew to approximately 200 mm^3 in volume, the conjugates (50 nmol per mouse) were intravenously injected into the mice via the tail vein. The fluorescence signal and intensity distribution were continuously monitored using an in vivo fluorescence imaging system (IVIS Lumina II, Xenogen, Alameda, CA, USA). […] However, relatively weak fluorescence signals in the tumor site could be detected. […] The increased water hydrophilicity of the divalent and trivalent conjugates may contribute to the reduction in the liver accumulation.\nHuman U87-MG cells (4 × 10^6 cells/mouse) were subcutaneously inoculated on the axilla of female Balb/c nude mice. […] In vivo fluorescence analysis was performed before and after the injection at various time points using the IVIS Lumina imaging system (IVIS Lumina II, Xenogen, USA) with a Cy5.5 filter (excitation: 615–665 nm, emission: 695–770 nm). Alternatively, the mice were euthanized at 2 h postinjection, and major organs, including the heart, liver, spleen, lungs, kidneys, and muscles, as well as the tumor, were collected; fluorescence images were then acquired."}, "[6]": {"test_system": "αvβ3 integrin receptor", "conditions": "compared with antibody molecules; no reference given at the statement; cited from earlier work", "from_the_text": "However, compared with antibody molecules, small molecule ligands have a much weaker affinity to their receptors, which makes their tumor enrichment not always ideal. In our former work, we coupled a very promising photosensitizer, pyropheophorbide-a (Pyro), which has ideal photosensitizer properties, with a small molecule tumor homing ligand—cyclo(-RGDfK-)—to prepare a tumor-targeted conjugate. The cyclic peptide cyclo(-RGDfK-), which contains a conformationally restrained RGD sequence, has been often used for targeting tumor imaging and/or therapeutic agents as a high affinity ligand ..."}, "[7]": {"test_system": "tumors in a mouse model", "conditions": "general statement on Pyro; no reference given at the statement; cited from earlier work", "from_the_text": "(§2) Pyro is a very promising photosensitizer with ideal photoactivity properties, including a high extinction coefficient (3.79 × 10^4 L mol^−1 cm^−1) and a high singlet oxygen quantum yield (over 50%). […] Solving the tumor enrichment problem is very important for its clinical application. Here, to further increase the affinity of RGD peptide-coupled Pyro conjugates to the receptor αvβ3 integrin, we synthesized multimeric RGD-coupled Pyro conjugates to increase the affinity via multivalent and cluster effects, thereby improving the upt ..."}, "[8]": {"conditions": "cited from earlier work", "from_the_text": "as §2"}},
  "data": [
    {"compound": "C=Cc1c(C)c2cc3nc(c4c5[nH]c(cc6nc(cc1[nH]2)C(C)=C6CC)c(C)c5C(=O)C4)[C@@H](CCC(=O)NC(COCCC(=O)NCCCOCCOCCOCCCNC(=O)C[C@@H]1NC(=O)[C@@H](Cc2ccccc2)NC(=O)[C@H](CC(=O)O)NC(=O)CNC(=O)[C@H](CCCNC(=N)N)NC1=O)(COCCC(=O)NCCCOCCOCCOCCCNC(=O)C[C@@H]1NC(=O)[C@@H](Cc2ccccc2)NC(=O)[C@H](CC(=O)O)NC(=O)CNC(=O)[C@H](CCCNC(=N)N)NC1=O)COCCC(=O)NCCCOCCOCCOCCCNC(=O)C[C@@H]1NC(=O)[C@@H](Cc2ccccc2)NC(=O)[C@H](CC(=O)O)NC(=O)CNC(=O)[C@H](CCCNC(=N)N)NC1=O)[C@@H]3C", "note": "(stereo partly drawn) [Pyro-TriRGD]", "values": [
      {"measurement": "λmax", "setting": "[1]", "result": 668, "unit": "nm"},
      {"measurement": "λem", "setting": "[1]", "result": 673, "unit": "nm"},
      {"measurement": "Stokes Shift", "setting": "[1]", "result": 5, "unit": "nm"},
      {"measurement": "IC50", "setting": "[2]", "result": "43.8 ± 8.2", "unit": "nM"},
      {"measurement": "binding to integrin αvβ3, fold better than Pyro-DiRGD", "setting": "[2]; ratio vs divalent Pyro-DiRGD", "result": "7 -fold"},
      {"measurement": "binding to integrin αvβ3, fold better than Pyro-MonoRGD", "setting": "[2]; ratio vs monovalent Pyro-MonoRGD", "result": "20 -fold"},
      {"measurement": "fluorescence intensity in excised tumor, 2 h postinjection", "setting": "[3]", "result": "the highest fluorescence intensity at the tumor site"},
      {"measurement": "singlet oxygen quantum yield ΦΔ", "setting": "[4]", "result": 0.48},
      {"measurement": "tumor accumulation, 2–6 h postinjection", "setting": "[5]; 50 nmol/mouse i.v., 2–6 h postinjection", "result": "excellent tumor accumulation at 2–6 h postinjection"},
      {"measurement": "tumor enrichment, overall comparison", "setting": "[5]; compared with the other two conjugates", "result": "had the best tumor enrichment compared with the other two conjugates"}
    ]},
    {"compound": "C=Cc1c(C)c2cc3nc(c4c5[nH]c(cc6nc(cc1[nH]2)C(C)=C6CC)c(C)c5C(=O)C4)[C@@H](CCC(=O)NC(COCCC(=O)NCCCOCCOCCOCCCNC(=O)C[C@@H]1NC(=O)[C@@H](Cc2ccccc2)NC(=O)[C@H](CC(=O)O)NC(=O)CNC(=O)[C@H](CCCNC(=N)N)NC1=O)COCCC(=O)NCCCOCCOCCOCCCNC(=O)C[C@@H]1NC(=O)[C@@H](Cc2ccccc2)NC(=O)[C@H](CC(=O)O)NC(=O)CNC(=O)[C@H](CCCNC(=N)N)NC1=O)[C@@H]3C", "note": "(stereo partly drawn) [Pyro-DiRGD]", "values": [
      {"measurement": "λmax", "setting": "[1]", "result": 668, "unit": "nm"},
      {"measurement": "λem", "setting": "[1]", "result": 673, "unit": "nm"},
      {"measurement": "Stokes Shift", "setting": "[1]", "result": 5, "unit": "nm"},
      {"measurement": "IC50", "setting": "[2]", "result": "313 ± 23.1", "unit": "nM"},
      {"measurement": "singlet oxygen quantum yield ΦΔ", "setting": "[4]", "result": 0.47}
    ]},
    {"compound": "cyclo(-RGDfK-)", "values": [
      {"measurement": "affinity to αvβ3 integrin receptor", "setting": "[6]", "result": "only has a moderate affinity to the αvβ3 integrin receptor"}
    ]},
    {"compound": "C=Cc1c(C)c2cc3nc(c4c5[nH]c(cc6nc(cc1[nH]2)C(C)=C6CC)c(C)c5C(=O)C4)[C@@H](CCC(=O)O)[C@@H]3C", "note": "[Pyro, pyropheophorbide-a, reference compound]", "values": [
      {"measurement": "tumor localization ability", "setting": "[7]", "result": "very limited tumor localization ability"},
      {"measurement": "extinction coefficient", "setting": "[8]", "result": 37900, "unit": "L/mol/cm"},
      {"measurement": "singlet oxygen quantum yield", "setting": "[8]", "result": "over 50%"},
      {"measurement": "λmax", "setting": "[1]", "result": 668, "unit": "nm"},
      {"measurement": "λem", "setting": "[1]", "result": 673, "unit": "nm"},
      {"measurement": "Stokes Shift", "setting": "[1]", "result": 5, "unit": "nm"},
      {"measurement": "singlet oxygen quantum yield ΦΔ", "setting": "[4]", "result": 0.52}
    ]},
    {"compound": "C=Cc1c(C)c2cc3nc(c4c5[nH]c(cc6nc(cc1[nH]2)C(C)=C6CC)c(C)c5C(=O)C4)[C@@H](CCC(=O)NCCCOCCOCCOCCCNC(=O)C[C@@H]1NC(=O)[C@@H](Cc2ccccc2)NC(=O)[C@H](CC(=O)O)NC(=O)CNC(=O)[C@H](CCCNC(=N)N)NC1=O)[C@@H]3C", "note": "[Pyro-MonoRGD]", "values": [
      {"measurement": "IC50", "setting": "[2]", "result": "951 ± 39.6", "unit": "nM"}
    ]}
  ]
}
